MLANA expression inhibition and AC40 data for 31 molecules are collected here from PubChem BioAssay AID651795 (Broad Institute, 2012).

“And” between values parts separate entries of the source, which are not always exact repeats. Identical values can stand only once. Inconclusive results are not listed. The source made the active and inactive calls.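 The calls were made as follows: active = compounds whose fitted curve reaches 40% MLANA inhibition below twice the top dose tried; inconclusive = flat curve with 30 to 70% opposite effect, or poor fit; inactive = the rest.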

System in the first experiment: not listed separately
Kind of experiment: MITF target gene MLANA transcript reduction – cell-based, RT-qPCR, SK-MEL-5, dry powder, dose response (AID 651795). As to conditions: SK-MEL-5 MLANA mRNA qPCR, delta delta Ct, overnight; at 35 µM (top of the series). In general terms: In qPCR the cycle at which signal appears reflects the starting amount.
For `NC1=C(NS(=O)(=O)c2ccc(Br)s2)C(=O)c2ccccc2C1=O`, the MLANA expression inhibition was 31.6% (inactive).

A further experiment concerns SK-MEL-5 MLANA mRNA qPCR, delta delta Ct, overnight. The description is as above.
Conditions: not given
For the molecule `O=C1C(Nc2ccc(Br)cc2)=C(N2CCCCC2)C(=O)c2ccccc21`, the AC40 was 14300 nM.
The same measure, in the same setting: the result for `O=C1C=C(NS(=O)(=O)c2cccs2)C(=O)c2ccccc21` reads 1980 nM; that for `O=C1C(Nc2ccccc2)=C(c2ccccc2)C(=O)c2ccccc21`, 7780 nM.
Consider `COC1=C(NS(=O)(=O)c2cccs2)C(=O)c2ccccc2C1=O`, for which the AC40 was 10500 nM.
On the same count and under the same terms, the result for `NC1=C(NC(=O)c2ccccc2)C(=O)c2ccccc2C1=O` reads 1540 nM; that for `NC1=C(NS(=O)(=O)c2ccccc2)C(=O)c2ccccc2C1=O`, 4500 nM; that for `CN1CCN(C2=C(Nc3ccc(F)cc3F)C(=O)c3ccccc3C2=O)CC1`, 3450 nM.
Same read-out and setting: the value for `Cc1ccc(NC2=CC(=O)c3ccccc3C2=O)cc1` was 745 nM; that for `O=C1C=C(NS(=O)(=O)c2ccccc2)C(=O)c2ccccc21` was 1360 nM; that for `O=C1C=C(NS(=O)(=O)c2ccc(Br)cc2)C(=O)c2ccccc21` was 2440 nM.
Take `O=C1C=C(Nc2ccc([N+](=O)[O-])c(C(F)(F)F)c2)C(=O)c2ccccc21`: the AC40 was 119 nM.
Take `NC1=C(NS(=O)(=O)c2cccs2)C(=O)c2ccccc2C1=O`: the AC40 is 2270 nM.
The same measure, in the same setting: the value for `CC(C)N1CCN(C2=C(Nc3ccc(F)cc3F)C(=O)c3ccccc3C2=O)CC1` was 3470 nM.
On the same count and under the same terms, the value for `CCN1CCN(C2=C(Nc3ccc(F)cc3F)C(=O)c3ccccc3C2=O)CC1` was 2480 nM.
Same read-out and setting: the result for `O=C1C(Nc2ccc(F)cc2)=C(N2CCCCC2)C(=O)c2ccccc21` reads 9240 nM; that for `COC1=C(NS(=O)(=O)c2ccc(Br)cc2)C(=O)c2ccccc2C1=O`, 9120 nM; that for `NC1=CC(=O)c2ccccc2C1=O`, 813 nM.
As to `C=CCNC1=C(Cl)C(=O)c2ccccc2C1=O`, the AC40 was 764 nM.
On the same count and under the same terms, the value for `CCN1CCN(C2=C(NC(=O)c3ccccc3)C(=O)c3ccccc3C2=O)CC1` was 1150 nM; that for `CN1CCN(C2=C(NS(=O)(=O)c3ccc(Br)s3)C(=O)c3ccccc3C2=O)CC1` was 2930 nM; that for `COC1=C(Nc2ccccc2)C(=O)c2ccccc2C1=O` was 492 nM.
Same read-out and setting: the value for `CC(C)N1CCN(C2=C(Nc3ccc(F)cc3)C(=O)c3ccccc3C2=O)CC1` was 5310 nM; that for `O=C1C=C(Nc2ccccc2)C(=O)c2ccccc21` was 337 nM and 389 nM; that for `NS(=O)(=O)c1ccc(NC2=CC(=O)c3ccccc3C2=O)cc1` was 82.4 nM.
Still for that read-out and setting: the result for `COc1ccc(NC2=C(N3CCCCC3)C(=O)c3ccccc3C2=O)cc1` reads 11000 nM; that for `CCN1CCN(C2=C(NS(=O)(=O)c3ccc(Br)cc3)C(=O)c3ccccc3C2=O)CC1`, 6430 nM.
`O=C1C(Nc2ccc(Cl)cc2)=C(N2CCCC2)C(=O)c2ccccc21`: the AC40 is 8640 nM.
Still for that read-out and setting: the value for `O=C(NC1=C(Cl)C(=O)c2ccccc2C1=O)c1ccccc1` was 227 nM; that for `O=C1C(NS(=O)(=O)c2cccs2)=C(c2ccccc2)C(=O)c2ccccc21` was 10800 nM.
Still for that read-out and setting: the value for `Cc1nc2ccccc2n1/N=C/c1ccc([N+](=O)[O-])s1` was 2750 nM.
